{"source": "patent US11635434B2", "about": "“Betaretrovirus epitopes and related methods of use” (priority 2018, dated 2023)", "tested_on": "intrahepatic lymphocytes (IHL)", "assay": "IFN-γ ELISPOT of intrahepatic lymphocytes stimulated with individual HBRV peptides", "assay_type": "cell-based, human", "from_the_text": "We isolated intrahepatic lymphocytes (IHL) to increase the likelihood of finding HBRV reactive lymphocytes (FIG. 3). IHL were extracted from 5 PBC subjects and 4 LT controls, as described^58 (FIG. 4B). ELISPOT was employed to detect IFN-γ spot forming colonies (SFC) using 100,000 IHL per reaction. Individual peptides from HBRV GAG and Env (immunosuppressive domains (ISD) peptides removed) were used to perform 140 analyses per sample with […] as positive and no stimulus as negative control. We found 15 GAG and 21 Env peptides that produced SFC above background levels (FIG. 6A).\nCellular immune responses have been found using pooled peptides of the HBRV Gag (n=58) and Env (n=85) proteins. […] In order to characterize immunodominant HBRV epitopes, we screened intra-hepatic lymphocytes (IHL) from PBC subjects and control subjects for evidence of IFNg production. Methods: IHL were isolated from liver transplant recipients with PBC (n=5) and other hepatic disorders (n=4). IHL were individually stimulated with 15-mer peptides from HBRV Gag or Env proteins (n=144) or the characterized CD8+ reactive epitope to pyruvate dehydrogenase-E2 (PDH-E2). ELISpot was used to measure spot forming colonies (SFC) producing IFN-g."}
{"sequence": "TIYLGGSPDFHGFRNMSG [Env 17]", "values": [{"measurement": "number of PBC subjects whose IHL were reactive (IFN-γ producing)", "setting": "5 PBC subjects", "result": 1}, {"measurement": "SFC level in the reactive PBC subject's IHL", "setting": "FIG. 6A", "result": "< 50", "unit": "SFC"}]}
